Results as given in patent US12522601B2, “1,3,4-oxadiazole derivative compounds as histone deacetylase 6 inhibitor, and the pharmaceutical composition comprising the same” (CHONG KUN DANG PHARMACEUTICAL CORP., priority 2020, dated 2026).

Legend:
human recombinant HDAC1 = target: T1, human recombinant HDAC1 (Homo sapiens, UniProt Q13547); test: In vitro HDAC enzyme activity inhibition assay, HDAC1 (HDAC Fluorimetric Drug Discovery Kit); type: biochemical; conditions: human recombinant HDAC1, Fluor de Lys-SIRT1 substrate 10 μM, 30° C. for 60 minutes
T1 construct: purchased Enzo Life Sciences, Inc. BML-SE456
In short: (§1)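 Fluorimetric deacetylase kit; 0.3 μg human recombinant enzyme with 10 μM Fluor de Lys-SIRT1 substrate, 60 min at 30° C, then developer 30 min. Fluorescence read at Ex 360/Em 460; IC50 from 5-fold compound dilutions. HDAC1 and HDAC6 run by the same protocol.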

human recombinant HDAC6 = target: T2, human recombinant HDAC6 (Homo sapiens, UniProt Q9UBN7); test: In vitro HDAC enzyme activity inhibition assay, HDAC6 (HDAC Fluorimetric Drug Discovery Kit); type: biochemical; conditions: for HDAC6 Selectivity (fold): HDAC6 versus HDAC1; for IC50: human recombinant HDAC6, same protocol as the HDAC1 test
T2 construct: purchased Calbiochem Inc. 382180
T2 sequence (Q9UBN7 1-1215): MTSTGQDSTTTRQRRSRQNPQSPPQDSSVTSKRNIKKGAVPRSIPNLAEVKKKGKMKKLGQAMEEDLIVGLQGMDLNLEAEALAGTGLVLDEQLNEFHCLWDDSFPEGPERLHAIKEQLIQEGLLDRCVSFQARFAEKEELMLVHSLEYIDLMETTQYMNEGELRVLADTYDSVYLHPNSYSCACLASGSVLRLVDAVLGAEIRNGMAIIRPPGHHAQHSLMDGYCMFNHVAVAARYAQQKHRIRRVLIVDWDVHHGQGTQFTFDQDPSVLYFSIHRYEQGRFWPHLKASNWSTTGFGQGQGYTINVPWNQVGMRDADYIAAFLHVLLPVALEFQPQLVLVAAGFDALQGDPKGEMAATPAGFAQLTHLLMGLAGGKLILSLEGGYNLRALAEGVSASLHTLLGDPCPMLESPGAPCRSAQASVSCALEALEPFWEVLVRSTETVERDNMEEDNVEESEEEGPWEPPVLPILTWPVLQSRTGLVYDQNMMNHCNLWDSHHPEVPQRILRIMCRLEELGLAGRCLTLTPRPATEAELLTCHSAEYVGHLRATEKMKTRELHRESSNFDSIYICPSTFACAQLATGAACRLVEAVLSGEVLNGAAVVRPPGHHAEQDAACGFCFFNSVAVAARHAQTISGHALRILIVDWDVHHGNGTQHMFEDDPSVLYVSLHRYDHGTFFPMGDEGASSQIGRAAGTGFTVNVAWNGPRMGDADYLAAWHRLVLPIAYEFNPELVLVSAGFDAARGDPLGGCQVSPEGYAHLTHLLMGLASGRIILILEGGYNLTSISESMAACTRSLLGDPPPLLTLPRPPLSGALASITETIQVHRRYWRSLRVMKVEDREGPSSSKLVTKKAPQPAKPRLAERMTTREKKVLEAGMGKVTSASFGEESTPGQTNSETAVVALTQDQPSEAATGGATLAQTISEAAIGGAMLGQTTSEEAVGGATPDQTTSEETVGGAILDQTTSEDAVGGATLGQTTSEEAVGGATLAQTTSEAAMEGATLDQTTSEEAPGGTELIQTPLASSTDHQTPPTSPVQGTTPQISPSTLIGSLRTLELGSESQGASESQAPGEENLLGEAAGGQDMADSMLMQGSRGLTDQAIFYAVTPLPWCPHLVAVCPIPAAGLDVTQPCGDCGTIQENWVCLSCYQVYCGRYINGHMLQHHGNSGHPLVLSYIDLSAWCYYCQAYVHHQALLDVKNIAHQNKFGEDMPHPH
In short: as §1

T1 sequence (Q13547 whole entry): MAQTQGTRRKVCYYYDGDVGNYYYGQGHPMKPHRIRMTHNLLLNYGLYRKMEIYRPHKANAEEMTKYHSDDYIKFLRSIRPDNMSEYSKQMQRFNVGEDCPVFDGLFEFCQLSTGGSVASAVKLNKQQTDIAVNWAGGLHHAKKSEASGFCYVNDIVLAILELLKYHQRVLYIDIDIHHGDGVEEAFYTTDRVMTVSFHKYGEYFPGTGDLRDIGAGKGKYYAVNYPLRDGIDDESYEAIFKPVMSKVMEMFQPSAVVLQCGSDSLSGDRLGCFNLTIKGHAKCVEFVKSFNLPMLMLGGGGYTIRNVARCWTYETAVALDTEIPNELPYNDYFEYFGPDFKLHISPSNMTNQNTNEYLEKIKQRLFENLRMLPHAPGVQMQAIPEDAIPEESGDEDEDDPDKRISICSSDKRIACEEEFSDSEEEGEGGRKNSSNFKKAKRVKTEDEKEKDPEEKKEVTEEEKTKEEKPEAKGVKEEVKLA

Compound | IC50 (human recombinant HDAC1) [nM] | HDAC6 Selectivity (fold) (human recombinant HDAC6) | IC50 (human recombinant HDAC6) [nM]
Fc1ccc(Cc2cn3ccc(-c4nnc(C(F)F)o4)cc3n2)cc1F [Compound 3587, 2-(2-(3,4-difluorobenzyl)imidazo[1,2-a]pyridin-7-yl)-5-(difluoromethyl)-1,3,4-oxadiazole] | > 50000 | 150 | 334
O=C(N1CCN(C2CC3(CCC3)C2)CC1)N(Cc1cn2ccc(-c3nnc(C(F)F)o3)cc2n1)c1cccc(F)c1 [Compound 4620] | > 50000 | 190 | 263

Further lines, results first:

IC50 (human recombinant HDAC1) [nM] | HDAC6 Selectivity (fold) (human recombinant HDAC6) | IC50 (human recombinant HDAC6) [nM] | Compound
> 50000 | 727 | 68.8 | CN1CCN(C(=O)N(Cc2cn3ccc(-c4nnc(C(F)F)o4)cc3n2)c2ccccc2)CC1 [Compound 3784, N-((7-(5-(difluoromethyl)-1,3,4-oxadiazol-2-yl)imidazo[1,2-a]pyridin-2-yl)methyl)-4-methyl-N-phenylpiperazine-1-carboxamide]
> 50000 | 151 | 332 | O=C(C1CCN(C2CCC2)CC1)N(Cc1cn2ccc(-c3nnc(C(F)F)o3)cc2n1)c1ccccc1 [Compound 4118, 1-cyclobutyl-N-((7-(5-(difluoromethyl)-1,3,4-oxadiazol-2-yl)imidazo[1,2-a]pyridin-2-yl)methyl)-N-phenylpiperidine-4-carboxamide]
> 50000 | 112 | 447 | CN1CC(C(=O)N(Cc2cn3ccc(-c4nnc(C(F)F)o4)cc3n2)c2ccccc2)C1 [Compound 4158, N-((7-(5-(difluoromethyl)-1,3,4-oxadiazol-2-yl)imidazo[1,2-a]pyridin-2-yl)methyl)-1-methyl-N-phenylazetidine-3-carboxamide]
